Reference: ChEMBL document CHEMBL4145588, “2,7-Diazaspiro[4,4]nonanes for the Treatment or Prevention of Cancers and Diabetes” (ACS Med Chem Lett, 2018)

Target: T1, Menin (Homo sapiens, UniProt O00255)
T1 sequence (O00255 whole entry): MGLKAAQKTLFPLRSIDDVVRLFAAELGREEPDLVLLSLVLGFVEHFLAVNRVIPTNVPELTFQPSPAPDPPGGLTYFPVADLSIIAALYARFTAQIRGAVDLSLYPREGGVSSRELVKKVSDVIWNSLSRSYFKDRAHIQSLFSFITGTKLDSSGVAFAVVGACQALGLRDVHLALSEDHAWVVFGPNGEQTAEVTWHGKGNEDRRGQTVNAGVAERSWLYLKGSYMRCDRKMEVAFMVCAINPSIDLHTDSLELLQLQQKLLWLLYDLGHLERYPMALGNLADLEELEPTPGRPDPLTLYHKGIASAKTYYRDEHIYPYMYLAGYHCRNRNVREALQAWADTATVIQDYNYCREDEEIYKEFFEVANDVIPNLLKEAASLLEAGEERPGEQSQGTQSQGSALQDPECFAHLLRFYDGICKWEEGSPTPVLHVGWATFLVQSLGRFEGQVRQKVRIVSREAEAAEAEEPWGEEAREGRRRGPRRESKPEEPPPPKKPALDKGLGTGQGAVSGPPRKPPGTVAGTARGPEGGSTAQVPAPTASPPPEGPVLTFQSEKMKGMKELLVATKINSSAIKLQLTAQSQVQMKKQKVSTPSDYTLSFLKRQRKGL
Experiment: Inhibition of biotinylated MLL-1 derived biotinylated Btn-PEG2- PEG2-S-Nva-RWRFPARPGTT-Amide binding to recombinant full length N-terminal His-tagged menin (unknown origin) expressed in Escherichia coli incubated for 10 mins by TR-FRET assay

SMILES	IC50 [nM]
O=S(=O)(Cc1ccc(CN2CCC3(CCN(c4ncnc5sc(CC(F)(F)F)cc45)C3)C2)cc1)NCCO (centres undefined)	10
CN(CCO)c1ccc(CN2CCC3(CCN(c4ncnc5sc(CC(F)(F)F)cc45)C3)C2)cc1 (centres undefined)	10
NS(=O)(=O)Cc1ccc(CN2CCC3(CCN(c4ncnc5sc(CC(F)(F)F)cc45)C3)C2)cc1 (centres undefined)	4
C=CC(=O)Nc1ccc(CN2CCC3(CCN(c4ncnc5sc(CC(F)(F)F)cc45)C3)C2)cc1 (centres undefined)	10
CC(c1ccc(CN2CCC3(CCN(c4ncnc5sc(CC(F)(F)F)cc45)C3)C2)cc1)S(N)(=O)=O (centres undefined)	10
N#CCc1ccc(CN2CCC3(CCN(c4ncnc5sc(CC(F)(F)F)cc45)C3)C2)cc1 (centres undefined)	20
CC(C)(C#N)c1ccc(CN2CCC3(CCN(c4ncnc5sc(CC(F)(F)F)cc45)C3)C2)cc1 (centres undefined)	20
FC(F)Cc1cc2c(N3CCC4(CCN(Cc5ccc(N6CCOCC6)cc5)C4)C3)ncnc2s1 (centres undefined)	10
NS(=O)(=O)Cc1ccc(CN2CCC3(CCN(c4ncnc5cc(CC(F)(F)F)sc45)C3)C2)cc1 (centres undefined)	10
